{"source": "patent US20250263404A1", "about": "“AMINOPYRIDINES AS ACTIVATORS OF PI3 KINASE” (UCL Business Ltd, priority 2021, published 2025)", "key": {"G106V mutant of p110α": {"biological_target": "T1, G106V mutant of p110α (Homo sapiens, UniProt P42336, G106V)", "T1 construct": "Full-length p110α was expressed in a complex with full-length p85α (for biochemistry and HDX-MS); 6xHis followed by TEV protease site (N); made in house; host or cells: Spodoptera frugiperda Sf9 (plasmid JB35)", "T1 sequence (P42336 whole entry G106V)": "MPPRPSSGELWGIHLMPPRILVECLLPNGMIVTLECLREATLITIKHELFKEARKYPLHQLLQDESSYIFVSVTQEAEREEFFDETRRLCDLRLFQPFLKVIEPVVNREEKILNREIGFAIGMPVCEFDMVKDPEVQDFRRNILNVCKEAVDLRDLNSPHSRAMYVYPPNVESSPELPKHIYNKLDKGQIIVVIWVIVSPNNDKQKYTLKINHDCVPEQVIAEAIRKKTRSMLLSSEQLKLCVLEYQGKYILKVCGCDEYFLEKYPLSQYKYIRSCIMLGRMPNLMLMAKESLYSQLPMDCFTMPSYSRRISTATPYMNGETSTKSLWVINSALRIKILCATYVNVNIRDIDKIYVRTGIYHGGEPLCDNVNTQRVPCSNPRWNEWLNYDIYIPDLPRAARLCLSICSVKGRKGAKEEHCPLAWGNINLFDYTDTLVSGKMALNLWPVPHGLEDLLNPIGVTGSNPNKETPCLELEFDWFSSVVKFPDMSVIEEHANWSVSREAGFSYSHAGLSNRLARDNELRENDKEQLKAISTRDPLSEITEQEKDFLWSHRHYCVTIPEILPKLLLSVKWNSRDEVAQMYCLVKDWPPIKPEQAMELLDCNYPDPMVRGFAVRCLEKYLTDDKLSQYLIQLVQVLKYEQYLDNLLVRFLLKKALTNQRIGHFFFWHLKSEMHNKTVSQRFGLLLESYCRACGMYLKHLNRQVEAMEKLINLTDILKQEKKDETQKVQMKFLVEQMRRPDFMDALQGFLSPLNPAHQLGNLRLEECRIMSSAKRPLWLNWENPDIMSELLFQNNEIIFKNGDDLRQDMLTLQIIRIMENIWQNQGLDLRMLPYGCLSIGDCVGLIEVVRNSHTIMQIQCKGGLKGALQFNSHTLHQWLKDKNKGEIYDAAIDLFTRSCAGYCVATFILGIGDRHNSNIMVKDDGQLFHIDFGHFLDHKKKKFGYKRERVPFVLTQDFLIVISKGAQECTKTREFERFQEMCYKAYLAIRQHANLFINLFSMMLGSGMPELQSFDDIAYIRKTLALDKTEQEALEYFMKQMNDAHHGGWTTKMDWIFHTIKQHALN", "T1 sequence (P27986 whole entry partner)": "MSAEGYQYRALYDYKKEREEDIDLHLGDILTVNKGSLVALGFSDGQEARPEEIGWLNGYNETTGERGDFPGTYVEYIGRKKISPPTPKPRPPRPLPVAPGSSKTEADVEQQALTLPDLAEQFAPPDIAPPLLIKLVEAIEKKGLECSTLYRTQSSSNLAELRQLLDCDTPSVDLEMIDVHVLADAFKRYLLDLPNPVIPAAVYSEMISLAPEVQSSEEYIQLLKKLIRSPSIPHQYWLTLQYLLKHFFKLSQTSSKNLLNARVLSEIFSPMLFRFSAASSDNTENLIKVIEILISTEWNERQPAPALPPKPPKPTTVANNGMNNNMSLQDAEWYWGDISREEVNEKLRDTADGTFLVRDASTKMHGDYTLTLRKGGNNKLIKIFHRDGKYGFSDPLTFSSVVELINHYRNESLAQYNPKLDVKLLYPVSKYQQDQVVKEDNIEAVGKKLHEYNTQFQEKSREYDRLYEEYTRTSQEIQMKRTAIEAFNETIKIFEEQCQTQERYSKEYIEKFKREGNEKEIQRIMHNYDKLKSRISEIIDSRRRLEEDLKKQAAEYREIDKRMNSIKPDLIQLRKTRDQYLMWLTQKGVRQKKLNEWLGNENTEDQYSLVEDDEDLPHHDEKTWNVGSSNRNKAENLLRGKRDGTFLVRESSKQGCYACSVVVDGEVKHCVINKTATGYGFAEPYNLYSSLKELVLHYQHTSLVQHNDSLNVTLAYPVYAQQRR", "assay": "ADP-Glo kinase assay, oncogenic mutant G106V", "format": "biochemical", "settings": "compared with pY", "description": "Co-stimulation of 1938 with pY led to an additive activatory effect for G106V, but not for the N345K and E545K mutants (FIG. 1f/FIG. 22f).\nKinase reactions were performed with ADP-Glo kinase assay kit (Promega Corporation). The enzyme, substrate and compounds were diluted in reaction buffer (20 mM HEPES, 50 mM NaCl, 50 mM KCl, 3 mM MgCl2, 1 mM EGTA, 1 mM TCEP, pH 7.4). Final concentrations of PI3Kα and PI3Kδ used were 25 nM and 50 nM for PI3Kβ. Liposomes (5% brain PI(4,5)P2, 20% brain phosphatidylserine, 45% brain phosphatidylethanolamine, 15% brain phosphatidylcholine, 10% cholesterol, 5% sphingomyelin (Avanti Polar Lipids)) were used at a final concentration of 1 mg/ml. The pY sequence is ESDGG(pY)[…](pY)[…].\nFor characterisation of the effects of 1938 on in vitro PI3K enzymology, all reactions were performed at room temperature with 384 white-polystyrene plates (Corning #3574). The final DMSO concentration in the assay was between 0.5%-1.8%. The reaction mixture contained 2 μl PI3K enzyme, 2 μl compound and/or pY and 2 μl of liposome substrate mixed with ATP. ATP was used at a final concentration of 200 μM, unless otherwise stated. The enzyme and compounds were pre-incubated for 10 min prior to addition of substrate. […] For enzyme kinetic calculations, data was expressed as velocity (pmol of ADP generated/sec). […]"}, "PI3Kα": {"biological_target": "PI3Kα (Homo sapiens, UniProt P42336)", "sequence (P42336 whole entry)": "as the sequence (P42336 whole entry G106V) above, with V106G counted along it", "sequence (P27986 whole entry partner)": "as the sequence (P27986 whole entry partner) above", "assay": "ADP-Glo in vitro lipid kinase assay, PI3Kα", "format": "biochemical", "parameters": "Full-length p110α was expressed in a complex with full-length p85α (for biochemistry and HDX-MS); 6xHis followed by TEV protease site (N); made in house; host or cells: Spodoptera frugiperda Sf9 (baculovirus co-infection; plasmids OP831 and OP809)", "description": "The effect of 1938 on the in vitro lipid kinase activity of p85α in complex with p110α, p110β or p110δ (further referred to as PI3Kα, PI3Kβ and PI3Kδ) was tested. As a positive control, a bis-phosphorylated phosphopeptide (a PDGF-receptor-derived peptide phosphorylated on Tyr-740 and Tyr-751, hereafter referred to as pY peptide) was used to mimic engagement of the p85α SH2 domains with tyrosine-phosphorylated peptides in membrane-bound receptors and adaptor proteins, known to activate the PI3Kα complex.\nKinase reactions were performed with ADP-Glo kinase assay kit (Promega Corporation). The enzyme, substrate and compounds were diluted in reaction buffer (20 mM HEPES, 50 mM NaCl, 50 mM KCl, 3 mM MgCl2, 1 mM EGTA, 1 mM TCEP, pH 7.4). Final concentrations of PI3Kα and PI3Kδ used were 25 nM and 50 nM for PI3Kβ. Liposomes (5% brain PI(4,5)P2, 20% brain phosphatidylserine, 45% brain phosphatidylethanolamine, 15% brain phosphatidylcholine, 10% cholesterol, 5% sphingomyelin (Avanti Polar Lipids)) were used at a final concentration of 1 mg/ml.\nFor compound profiling, the reaction mixture contained 2 μl PI3K enzyme, 2 μl compound and/or pY and 2 μl of liposome substrate mixed with ATP. ATP was used at a final concentration of 500 μM for PI3Kα and PI3Kβ and at 200 μM for PI3Kδ, unless otherwise stated. The final DMSO concentration in the assay was 1%. The experiments were performed at room temperature for 3 h using 384 white-polystyrene plates (Corning #3824) before addition of 6 μl of ADP-Glo R1 to terminate the reaction. The plate was incubated for 45 min, followed by addition of 12 μl of ADP-Glo R2 and incubated further for 60 min in the dark. Luminescence was read using a Sense (Hidex) plate reader. […] All analyses were performed using GraphPad Prism 7.\nFor characterisation of the effects of 1938 on in vitro PI3K enzymology, all reactions were performed at room temperature with 384 white-polystyrene plates (Corning #3574). The final DMSO concentration in the assay was between 0.5%-1.8%. The reaction mixture contained 2 μl PI3K enzyme, 2 μl compound and/or pY and 2 μl of liposome substrate mixed with ATP. ATP was used at a final concentration of 200 μM, unless otherwise stated. The enzyme and compounds were pre-incubated for 10 min prior to addition of substrate. The reaction was allowed to proceed for 45 min at room temperature, before addition of 6 μl of ADP-Glo R1 to terminate the reaction. The plate was incubated for 60 min, followed by addition of 12 μl of ADP-Glo R2 and incubated further for 60 min in the dark. For enzyme kinetic calculations, data was expressed as velocity (pmol of ADP generated/sec). ADP-ATP standard curves were performed according to the manufacturer's instructions, and all analyses were performed using GraphPad Prism 8."}}, "data": [{"smiles": "CCN1CCN(c2ccc(Nc3cc(Nc4cccc5c4N(C(C)=O)CC5)ccn3)cc2)CC1", "note": "[Example 1938]", "values": [{"measurement": "activation of G106V mutant", "setting": "G106V mutant of p110α", "result": "levels comparable with stimulation with pY"}, {"measurement": "PI3Kα activation in combination with a saturating concentration of pY", "setting": "PI3Kα; 1938 plus pY", "result": "synergistic PI3Kα activation"}, {"measurement": "maximum rate of reaction (Vmax) of PI3Kα", "setting": "PI3Kα; ATP titration", "result": "increased"}, {"measurement": "turnover number (Kcat) of PI3Kα", "setting": "PI3Kα; ATP titration", "result": "increased"}, {"measurement": "effect on in vitro lipid kinase activity of PI3Kα", "setting": "PI3Kα; concentration-dependent", "result": "activate PI3Kα"}, {"measurement": "EC50", "setting": "PI3Kα; in vitro PI3Kα activation", "result": "58 ± 28", "unit": "µM"}, {"measurement": "Max. activity relative to 1938", "setting": "PI3Kα; relative to 1938", "result": 100, "unit": "%"}, {"measurement": "Max. activity relative to pY ctrl", "setting": "PI3Kα; relative to pY control", "result": "397 ± 60", "unit": "%"}]}]}
